# Assay results as given in US20240425517A1, “NOVEL COMPOUND FOR DEGRADATION OF TARGET PROTEIN OR POLYPEPTIDE BY POLYUBIQUITINATION” (PRAZER THERAPEUTICS INC., priority 2021, published 2024).
# Target: T1, BRD4 proteins (Homo sapiens, UniProt O60885)
# T1 construct: endogenous in cells; host or cells: MM.1S
# Assay: Degradation of BRD4 protein in MM.1S cell lines (Western blot densitometry)
# Assay type: cell-based
# Settings: MM.1S cells, 10 μM, 24 hours
# Procedure: To confirm that the compounds (BRD4 degraders) of Preparation Examples I′ to IV′ reduce the amount of BRD4 proteins, experiments were performed using MM.1S cell lines, which are B cells derived from the blood of multiple myeloma patients.
# Specifically, the MM.1S cells were cultured in RPMI-1640 medium supplemented with 10% fetal bovine serum and Penicillin/Streptomycin (100 U/mL), transferred to a 6-well plate, and after 24 hours, the BRD4 degraders were diluted in the culture medium and the cells were treated with 10 μM each. After treatment, the cells were incubated in a C02 incubator for 24 hours. Through protein immunoblotting (Western Blot), the degrading capacity of each compound against BRD4 proteins in cells was confirmed. After cell culture was completed according to the experimental conditions, the cells were collected and centrifuged at 1,800 rpm for 3 minutes. The cells in the precipitate were lysed with RIPA (25 mM Tris-HCl pH 7.6, 150 mM NaCl, 1% NP-40, 1% sodium deoxycholate, 0.1% SDS, 1× Protease Inhibitor Cocktail), 5× sample buffer was added, and then heated at 100° C. for 15 minutes. The prepared sample was electrophoresed with sodium dodecyl sulfate poly acrylamide gel electrophoresis (SDS-PAGE), and then the proteins in the gel were transferred to a PVDF membrane using Trans-Blot Turbo. The membrane was treated with a 5% bovine serum albumin (BSA) solution and blocked at room temperature for 2 hours, and then BRD4 and R-actin antibodies were diluted in the 5% BSA solution to react with the membrane at 4° C. overnight. After washed with PBST (0.5% Tween20) 5 times, horse radish peroxidase (HRP)-conjugated secondary antibodies were diluted in PBST to react at room temperature for 2 hours, and then washed again with a PBST solution 5 times. After enzyme-substrate reaction was carried out using a HRP substrate, a signal was measured with chemi-doc equipment, and the densitometry of a band corresponding to the BRD4 protein detected in the Preparation Example Compounds was quantitatively analyzed. The case when the degrading capacity of each BRD4 degrader was reduced by less than 40% is indicated as +, the case when the degrading capacity was reduced by 40% to 70% (exclusive of 70) is indicated as ++, the case when the degrading capacity was reduced by 70% or more is indicated as +++ in Tables 16 to 19 below. As shown in the following Tables, it was confirmed that the compounds of Preparation Examples I′ to IV′ according to the present invention have excellent degrading capacity.
row,Structure (SMILES),BRD4 degrading capacity (%)
1,"Cc1sc2c(c1C)C(c1ccc(Cl)cc1)=N[C@@H](CC(=O)Nc1ccc(C#CCN)cc1)c1nnc(C)n1-2.Cl [1-1′, (S)—N-(4-(3-aminoprop-1-yn-1-yl)phenyl)-2-(4-(4-chlorophenyl)-2,3,9-trimethyl-6H-thieno[3,2-f][1,2,4]triazolo[4,3-a][1,4]diazepin-6-yl)acetamide hydrochloride]",++ (the degrading capacity was reduced by 40% to 70% (exclusive of 70))
2,"Cc1sc2c(c1C)C(c1ccc(Cl)cc1)=N[C@@H](CC(=O)Nc1cccc(C#CCN)c1)c1nnc(C)n1-2.Cl [1-3′, (S)—N-(3-(3-aminoprop-1-yn-1-yl)phenyl)-2-(4-(4-chlorophenyl)-2,3,9-trimethyl-6H-thieno[3,2-f][1,2,4]triazolo[4,3-a][1,4]diazepin-6-yl)acetamide hydrochloride]",++ (the degrading capacity was reduced by 40% to 70% (exclusive of 70))
3,"COC(=O)c1cc(NC(=O)C[C@@H]2N=C(c3ccc(Cl)cc3)c3c(sc(C)c3C)-n3c(C)nnc32)ccc1C#CCN.Cl [3-1′, methyl (S)-2-(3-aminoprop-1-yn-1-yl)-5-(2-(4-(4-chlorophenyl)-2,3,9-trimethyl-6H-thieno[3,2-f][1,2,4]triazolo[4,3-a][1,4]diazepin-6-yl)acetamido)benzoate hydrochloride]",+++ (the degrading capacity was reduced by 70% or more)
4,"Cc1sc2c(c1C)C(c1ccc(Cl)cc1)=N[C@@H](CC(=O)Nc1ccc(C#CCN)c(C(=O)O)c1)c1nnc(C)n1-2.Cl [3-2′, (S)-2-(3-aminoprop-1-yn-1-yl)-5-(2-(4-(4-chlorophenyl)-2,3,9-trimethyl-6H-thieno[3,2-f][1,2,4]triazolo[4,3-a][1,4]diazepin-6-yl)acetamido)benzoic acid hydrochloride]",++ (the degrading capacity was reduced by 40% to 70% (exclusive of 70))
5,"Cc1sc2c(c1C)C(c1ccc(Cl)cc1)=N[C@@H](CC(=O)Nc1ccc(C#CCN)c(CO)c1)c1nnc(C)n1-2.Cl [3-3′, (S)—N-(4-(3-aminoprop-1-yn-1-yl)-3-(hydroxymethyl)phenyl)-2-(4-(4-chlorophenyl)-2,3,9-trimethyl-6H-thieno[3,2-f][1,2,4]triazolo[4,3-a][1,4]diazepin-6-yl)acetamide hydrochloride]",+++ (the degrading capacity was reduced by 70% or more)
6,"Cc1sc2c(c1C)C(c1ccc(Cl)cc1)=N[C@@H](CC(=O)Nc1ccc(C#CCN)c(COP(=O)(O)O)c1)c1nnc(C)n1-2 [3-8′, (S)-2-(3-aminoprop-1-yn-1-yl)-5-(2-(4-(4-chlorophenyl)-2,3,9-trimethyl-6H-thieno[3,2-f][1,2,4]triazolo[4,3-a][1,4]diazepin-6-yl)acetamido)benzyl dihydrogen phosphate trifluoroacetic acid]",+ (the degrading capacity of each BRD4 degrader was reduced by less than 40%)
7,"COC(=O)c1ccc(NC(=O)C[C@@H]2N=C(c3ccc(Cl)cc3)c3c(sc(C)c3C)-n3c(C)nnc32)cc1C#CCN.Cl [3-25′, methyl (S)-2-(3-aminoprop-1-yn-1-yl)-4-(2-(4-(4-chlorophenyl)-2,3,9-trimethyl-6H-thieno[3,2-f][1,2,4]triazolo[4,3-a][1,4]diazepin-6-yl)acetamido)benzoate hydrochloride]",+++ (the degrading capacity was reduced by 70% or more)
8,"Cc1sc2c(c1C)C(c1ccc(Cl)cc1)=N[C@@H](CC(=O)Nc1ccc(C(=O)O)c(C#CCN)c1)c1nnc(C)n1-2.Cl [3-26′, (S)-2-(3-aminoprop-1-yn-1-yl)-4-(2-(4-(4-chlorophenyl)-2,3,9-trimethyl-6H-thieno[3,2-f][1,2,4]triazolo[4,3-a][1,4]diazepin-6-yl)acetamido)benzoic acid hydrochloride]",++ (the degrading capacity was reduced by 40% to 70% (exclusive of 70))
